The conditions of data set [1]: 293.15 K; 101.33 kPa; Liquid; Vibrating tube method.
Data set [2] is described as follows: refractive index (Na D-line) (dimensionless). To be noted: 293.15 K; 101.33 kPa; Liquid; Standard Abbe refractometry.
Data set [3] can be described thus: Boiling temperature at pressure P. To be noted: 101.3 kPa; Liquid; Closed cell (Static) method.

The structures appear in SMILES notation. Numbers after ± are expanded uncertainties.

The term mass density denotes mass per unit of volume. In general, refractive index refers to the speed of light in vacuum divided by its phase velocity in the sample. In the case of `CC(C)O` [propan-2-ol], the mass density in data set [1] was 786 ± 0.4 kg/m3. Besides, in data set [2], the refractive index was found to be 1.3773 ± 0.0004. The “Boiling temperature at pressure P” value in data set [3] amounted to 82.34 ± 0.1 °C.

Consider `CC#N` [acetonitrile], for which the mass density in data set [1] was 782.1 ± 0.4 kg/m3. Further, in data set [2], the refractive index turned out to be 1.3439 ± 0.0004. Besides, in data set [3], the “Boiling temperature at pressure P” value is 81.44 ± 0.1 °C.

(Values after the NIST ThermoML archive (doi:10.1016/j.fluid.2015.10.035).)
